Legend:
Cricetinae gen. sp. [1] = test: Effective concentration was evaluated when liver cholesterol ester level reduction was 17%; format: functional, Cricetulus griseus
Cricetinae gen. sp. [2] = test: Effective concentration was evaluated when liver cholesterol ester level reduction was 87%; format: functional, Cricetulus griseus
[3] = Compound was evaluated in vivo for the reduction of liver cholesterol ester level at the rate 5 mpk; format: functional
[4] = Compound was evaluated in vivo for the reduction of liver cholesterol ester level at the rate 50 mpk; format: functional
[5] = Compound was evaluated in vivo for the reduction of liver cholesterol ester level at the rate 10 mpk; format: functional

SMILES	L/CE [3]	L/CE [4]	L/CE [5]	also measured
COc1ccc([C@@H]2N(c3ccc(OC)cc3)C(=O)C23CCC(c2ccccc2)CC3)cc1 (stereo partly drawn)	–	–	–	ED50 (Cricetinae gen. sp. [1]): 3 mg/kg; ED50 (Cricetinae gen. sp. [2]): > 50 mg/kg
COc1ccc([C@H]2[C@H](CCCc3ccccc3)C(=O)N2c2ccc(OC)cc2)cc1	0%	–	–	–
COc1ccc([C@@H]2[C@H](CCCc3ccccc3)C(=O)N2c2ccc(OC)cc2)cc1	–	0%	69%	–
COc1ccc([C@H]2[C@@H](CCCc3ccccc3)C(=O)N2c2ccc(OC)cc2)cc1	–	–	0%	–
COc1ccc([C@@H]2[C@@H](CCCc3ccccc3)C(=O)N2c2ccc(OC)cc2)cc1 [SCH-48461]	66%	0%	–	–
